ChEMBL document CHEMBL3407366, “Original 2-(3-alkoxy-1H-pyrazol-1-yl)pyrimidine derivatives as inhibitors of human dihydroorotate dehydrogenase (DHODH)” (J Med Chem, 2015)
Values after ≈ are worked out from the molar mass of the structure shown. Active and inactive are the calls of the source. The calls are words filed in the database; no cut-off is given here.

Each compound was assayed against Dihydroorotate dehydrogenase (quinone), mitochondrial (Homo sapiens, UniProt Q02127) (assay: Inhibition of His-tagged human DHODH assessed as reduction of DCIP by spectrophotometry). Conditions: not given.
Chain of Dihydroorotate dehydrogenase (quinone), mitochondrial (Q02127 whole entry): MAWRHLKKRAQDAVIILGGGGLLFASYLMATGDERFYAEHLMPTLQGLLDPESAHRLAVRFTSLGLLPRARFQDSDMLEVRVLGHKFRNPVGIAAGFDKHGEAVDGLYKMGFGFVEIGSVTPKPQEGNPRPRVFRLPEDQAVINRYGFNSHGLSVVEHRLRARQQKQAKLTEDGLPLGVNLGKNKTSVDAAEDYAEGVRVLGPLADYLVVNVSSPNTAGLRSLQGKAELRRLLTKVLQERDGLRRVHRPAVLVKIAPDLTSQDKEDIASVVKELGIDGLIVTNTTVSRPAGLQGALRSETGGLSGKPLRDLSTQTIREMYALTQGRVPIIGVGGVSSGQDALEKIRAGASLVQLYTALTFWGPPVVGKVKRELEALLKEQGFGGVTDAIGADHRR
With Cc1c(Cc2ccccc2F)c(OC(C)C)nn1-c1ncc(C2CC2)cn1 the IC50 was 0.0126 µM. CCOc1nn(-c2ncc(CC)cn2)c(C)c1Oc1ccccc1Br gave an IC50 of 0.126 µM.

The compounds below were run on Measles morbillivirus (assay: Antiviral activity against Measles virus expressing firefly luciferase rMV2/Luc infected in human HEK293 cells assessed as bioluminescence level after 6 mins by luminometry). Conditions: not given.
Format: functional
CCc1cnc(-n2nc(OC(C)C)c(Cc3ccccc3F)c2C)nc1 gave a pMIC50 of 8.8. With Cc1c(Cc2ccccc2F)c(OC(C)C)nn1-c1ncc(C2CC2)cn1 the pMIC50 was 8.9. Cc1c(Oc2c(F)cccc2F)c(OC(C)C)nn1-c1nccc(O)n1 was tested, and the pMIC50 was under 5. CCc1cnc(-n2nc(OC(C)C)c(Oc3c(F)cccc3F)c2C)nc1O showed a pMIC50 of 7.8. COc1nn(-c2ncc(C3CC3)cn2)c(C)c1Cc1ccccc1 gave a pMIC50 of 7.3. For CCN(CC)Cc1c(Cc2ccccc2)c(OC(C)C)nn1-c1ncc(C2CC2)cn1, the pMIC50 was 5.1. For Cc1cnc(-n2nc(OC(C)C)c(Oc3c(F)cccc3F)c2C)nc1O, the pMIC50 was 6.8. Work on CCc1cnc(-n2nc(CC(C)C)c(Cc3ccccc3)c2C)nc1 yielded a pMIC50 of 7.5. With CCOc1nn(-c2nccc(C)n2)c(C)c1Cc1ccccc1 the pMIC50 was 6.1. CCOc1nn(-c2ncc(CC)cn2)c(C)c1Oc1cccc(C(F)(F)F)c1 showed a pMIC50 of 7.3. With CCc1cnc(-n2nc(OC(C)C)c(Oc3c(F)cccc3F)c2C)nc1 the pMIC50 was 9.1. CCc1cnc(-n2nc(OC(C)C)c(Oc3ccc(F)cc3F)c2C)nc1 showed a pMIC50 of 7.9. Cc1c(Oc2c(F)cccc2F)c(OC(C)C)nn1-c1ncc(F)cn1 gave a pMIC50 of 6.6. Work on CCc1ccc(-n2nc(OC(C)C)c(Cc3ccccc3)c2C)cc1 yielded a pMIC50 of 6.2. For CCC(CC)Oc1nn(-c2ncc(C3CC3)cn2)c(C)c1Cc1ccccc1, the pMIC50 was 8.8. With CCOc1nn(-c2ncc(CC)cn2)c(C)c1-c1ccccc1 the pMIC50 was 5.4. In the case of Cc1c(Cc2ccccc2)c(O)nn1-c1ncc(C2CC2)cn1, the pMIC50 is reported as 5.6. Work on CCc1cnc(-n2nc(OC(C)C)c(Oc3cccc(F)c3F)c2C)nc1 yielded a pMIC50 of 7.2. In the case of Cc1c(Oc2c(F)cccc2F)c(OC(C)C)nn1-c1ncc(C2CC2)cn1, the pMIC50 is reported as 8.9. With Cc1c(C(O)c2ccccc2)c(OC(C)C)nn1-c1ncc(C2CC2)cn1 (centres undefined) the pMIC50 was 8.8. CCCc1cnc(-n2nc(OCC)c(Cc3ccccc3)c2C)nc1 gave a pMIC50 of 7.5. CCOc1nn(-c2ncc(C3CC3)cn2)c(C)c1Cc1ccccc1 was tested, and the pMIC50 was 7.6. Work on CCCc1cnc(-n2nc(OC(C)C)c(Oc3c(F)cccc3F)c2C)nc1 yielded a pMIC50 of 8.5. In the case of CCc1cnc(-n2nc(OC(C)C)c(Cc3ccccc3)c2C)nc1, the pMIC50 is reported as 8.4. Work on COc1cnc(-n2nc(OC(C)C)c(Oc3c(F)cccc3F)c2C)nc1 yielded a pMIC50 of 7.3. With CCOc1nn(-c2ncc(CC)cn2)c(C)c1Sc1ccccc1 the pMIC50 was 6.9. CCc1cnc(-n2nc(OC(C)C)c(Cc3ccc(F)cc3)c2C)nc1 gave a pMIC50 of 7.4. Work on CCOc1nn(-c2ncc(Br)cn2)c(C)c1Cc1ccccc1 yielded a pMIC50 of 7. Compound CCc1cnc(-n2nc(OC(C)C)c(Oc3cc(F)ccc3F)c2C)nc1 has a pMIC50 of 7.3. With CCc1cnc(-n2nc(OC(C)C)c(Oc3cccc(F)c3)c2C)nc1 the pMIC50 was 6.6. With CCOc1nn(-c2ncc(CC)cn2)c(C)c1Oc1cc(Cl)cc(Cl)c1 the pMIC50 was 5.9. Compound COCc1c(Cc2ccccc2)c(OC(C)C)nn1-c1ncc(C2CC2)cn1 has a pMIC50 of 7.2. Cc1nn(-c2ncc(C3CC3)cn2)c(OC(C)C)c1Cc1ccccc1 showed a pMIC50 of 6.8. For CCc1cnc(-n2nc(O)c(Cc3ccccc3)c2C)nc1, the pMIC50 was 6.3. With CCOc1nn(-c2ncc(CC)cn2)c(C)c1Oc1ccccc1 the pMIC50 was 6.2. Work on CCc1cnc(-n2nc(OC(C)C)c(Oc3ccc(F)cc3)c2C)nc1 yielded a pMIC50 of 6.5. CCOc1nn(-c2ncc(CC)cn2)c(C)c1Oc1ccccc1Br was tested, and the pMIC50 was 6.9. In the case of Cc1c(Oc2c(F)cccc2F)c(OC(C)C)nn1-c1ncc(Br)cn1, the pMIC50 is reported as 7.9. For CCc1cnc(-n2nc(OC(C)C)c(Cc3cccc(F)c3)c2C)nc1, the pMIC50 was 8.2. CCCc1cnc(-n2nc(OC(C)C)c(Oc3c(F)cccc3F)c2C)nc1O showed a pMIC50 of 7.2. With CCOc1nn(-c2ncc(CC)cn2)c(C)c1Oc1ccccc1Cl the pMIC50 was 6.9. Compound Cc1cnc(-n2nc(OC(C)C)c(Oc3c(F)cccc3F)c2C)nc1 has a pMIC50 of 7.9. CCCCCc1cnc(-n2nc(OCC)c(Cc3ccccc3)c2C)nc1 was tested, and the pMIC50 was under 5. Compound CCOc1nn(-c2ncccn2)c(C)c1Cc1ccccc1 has a pMIC50 of 5.5. In the case of CCOc1nn(-c2ccc(C)cn2)c(C)c1Cc1ccccc1, the pMIC50 is reported as 6.2. In the case of C/C(O)=C(\C#N)C(=O)Nc1ccc(C(F)(F)F)cc1 [TERIFLUNOMIDE], the pMIC50 is reported as 5.3. For CCC(C)Oc1nn(-c2ncc(C3CC3)cn2)c(C)c1Cc1ccccc1 (centres undefined), the pMIC50 was 8.7. Work on CCOc1nn(-c2ncc(CC)c(C)n2)c(C)c1Cc1ccccc1 yielded a pMIC50 of 7.4. CCOc1nn(-c2ncc(CC)cn2)c(C)c1Oc1ccc(C(F)(F)F)cc1 gave a pMIC50 of 5.2. CCOc1nn(-c2ncc(CC)cn2)c(C)c1Oc1ccccc1C(F)(F)F showed a pMIC50 of 6.2. Cc1c(Oc2c(F)cccc2F)c(OC(C)C)nn1-c1ncccn1 showed a pMIC50 of 5.6. Work on CCOc1nn(-c2ncc(CC)cn2)c(C)c1Oc1ccccc1F yielded a pMIC50 of 7.2. Work on CCOc1nn(-c2ncc(CC)cn2)c(C)c1Oc1cc(Cl)ccc1Cl yielded a pMIC50 of 7.6. In the case of CCOc1nn(-c2ncc(CC)cn2)c(C)c1Oc1cccc(Cl)c1Cl, the pMIC50 is reported as 6.8. CCc1cnc(-n2nc(OC(C)C)c(Oc3ccccc3F)c2C)nc1 was tested, and the pMIC50 was 8.1. Work on CCc1cnc(-n2nc(OCCCN(C)C)c(Cc3ccccc3)c2C)nc1 yielded a pMIC50 of 6.1. For CCOc1nn(-c2ncc(C)cn2)c(C)c1Cc1ccccc1, the pMIC50 was 7.5. With CCc1cnc(-n2nc(OCCO)c(Cc3ccccc3)c2C)nc1 the pMIC50 was 6.6. Compound CCOc1nn(-c2ncc(OC)cn2)c(C)c1Cc1ccccc1 has a pMIC50 of 6.2. Compound CCOc1nn(-c2ncc(CC)cn2)c(C)c1C(=O)c1ccccc1 has a pMIC50 of 6.2. Work on CCOc1nn(-c2ncc(CC)cn2)c(C)c1Cc1ccccc1 yielded a pMIC50 of 7.7. CC(C)Oc1nn(-c2ncc(C3CC3)cn2)c(CN(C)C)c1Cc1ccccc1 gave a pMIC50 of under 5. CCc1cnc(-n2nc(OCCOCc3ccccc3)c(Cc3ccccc3)c2C)nc1 showed a pMIC50 of 7.3. With CCOc1nn(-c2ncc(CC)cn2)c(C)c1I the pMIC50 was 4.9. Compound Cc1c(Cc2ccccc2)c(OC(C)C)nn1-c1ncc(C2CC2)cn1 has a pMIC50 of 8.2.

Same assay, conditions: Measles morbillivirus, 0.1 h
Compound CCOc1nn(-c2ncccn2)c(C)c1Cc1ccccc1 has an MIC50 of 2.72 µM (≈ 0.801 µg/mL). With CCOc1nn(-c2ccc(C)cn2)c(C)c1Cc1ccccc1 the MIC50 was 0.65 µM (≈ 0.2 µg/mL).

These compounds were tested on HEK293 (assay: Cytotoxicity against human HEK293 cells assessed as cell viability after 24 hrs by CellTiter-Glo assay). Conditions: hek293, 24 h.
Format: cell-based
With CCOc1nn(-c2ncccn2)c(C)c1Cc1ccccc1 the Activity was “Non-toxic”. CCOc1nn(-c2ccc(C)cn2)c(C)c1Cc1ccccc1 was tested, and the Activity was “Non-toxic”.

Each compound was assayed on Measles morbillivirus (assay: Antiviral activity against measles virus expressing firefly luciferase rMV2/Luc infected in human HEK293 cells assessed as bioluminescence level at 16 to 195 nM after 6 mins by luminometry in presence of orotic acid). Conditions: not given.
Format: functional, organism-based
CCOc1nn(-c2ncc(CC)cn2)c(C)c1Cc1ccccc1 was tested, and the Activity was “inactive”.

What follows are compounds tested on Measles morbillivirus (assay: Antiviral activity against measles virus expressing firefly luciferase rMV2/Luc infected in human HEK293 cells assessed as bioluminescence level at 16 to 195 nM after 6 mins by luminometry in presence of uridine). Conditions: not given.
Format: functional, organism-based
With CCOc1nn(-c2ncc(CC)cn2)c(C)c1Cc1ccccc1 the Activity was “inactive”.

The compounds below were run on Measles morbillivirus (assay: Antiviral activity against measles virus expressing firefly luciferase rMV2/Luc infected in human HEK293 cells assessed as bioluminescence level at 16 to 195 nM after 6 mins by luminometry in presence of dihydroorotic acid). Conditions: not given.
Format: functional, organism-based
For CCOc1nn(-c2ncc(CC)cn2)c(C)c1Cc1ccccc1, the Activity was “Active”.
